± gives the uncertainty stated by the source.
Assay: xn = mol fraction of the nth substance listed
Conditions: 101.3 kPa

NCCCN + CC(O)CO
viscosity [mPa·s]
Conditions	293.15 K	298.15 K	303.15 K	308.15 K	313.15 K	318.15 K
x2 = 0.0488	2.44 ± 0.03	2.19 ± 0.03	1.92 ± 0.03	1.68 ± 0.03	1.48 ± 0.03	1.32 ± 0.03
x2 = 0.0977	3.15 ± 0.04	2.8 ± 0.03	2.43 ± 0.03	2.08 ± 0.03	1.82 ± 0.03	1.58 ± 0.03
x2 = 0.1467	3.95 ± 0.04	3.45 ± 0.04	2.97 ± 0.04	2.51 ± 0.03	2.17 ± 0.03	1.91 ± 0.03
x2 = 0.1958	5.23 ± 0.05	4.5 ± 0.04	3.79 ± 0.04	3.17 ± 0.04	2.7 ± 0.03	2.34 ± 0.03
x2 = 0.2451	6.85 ± 0.05	5.81 ± 0.05	4.87 ± 0.04	4 ± 0.04	3.36 ± 0.04	2.88 ± 0.03
x2 = 0.2945	9.15 ± 0.06	7.62 ± 0.06	6.28 ± 0.05	5.09 ± 0.04	4.2 ± 0.04	–
x2 = 0.3441	12.3 ± 0.1	10 ± 0.1	8.12 ± 0.06	6.48 ± 0.05	5.29 ± 0.04	–
x2 = 0.3937	17 ± 0.1	13.6 ± 0.1	10.8 ± 0.1	8.39 ± 0.06	6.74 ± 0.05	–
x2 = 0.4435	22.8 ± 0.1	17.9 ± 0.1	14 ± 0.1	10.7 ± 0.1	8.55 ± 0.06	–
x2 = 0.4934	30 ± 0.2	23.2 ± 0.1	17.9 ± 0.1	13.6 ± 0.1	10.6 ± 0.1	–
x2 = 0.5435	38.5 ± 0.2	29.3 ± 0.2	22.2 ± 0.1	16.7 ± 0.1	12.9 ± 0.1	–
x2 = 0.5937	47.4 ± 0.3	35.8 ± 0.2	27 ± 0.2	20.1 ± 0.1	15.4 ± 0.1	–
x2 = 0.644	55.5 ± 0.2	41.8 ± 0.2	31.4 ± 0.2	23.2 ± 0.1	17.6 ± 0.1	–
x2 = 0.6945	62.5 ± 0.3	46.9 ± 0.3	35.1 ± 0.2	25.9 ± 0.2	19.7 ± 0.1	–
x2 = 0.745	67.1 ± 0.4	50.3 ± 0.2	37.8 ± 0.2	27.8 ± 0.2	21.2 ± 0.1	–
x2 = 0.7958	69 ± 0.4	51.8 ± 0.2	38.8 ± 0.2	28.8 ± 0.2	21.9 ± 0.1	–
x2 = 0.8466	68.9 ± 0.4	51.9 ± 0.2	39 ± 0.2	28.9 ± 0.2	22 ± 0.1	–
x2 = 0.8976	66.1 ± 0.4	50 ± 0.3	37.7 ± 0.2	28.1 ± 0.2	21.5 ± 0.1	–
x2 = 0.9487	62.3 ± 0.3	47.1 ± 0.2	35.7 ± 0.2	26.8 ± 0.1	20.5 ± 0.1	–

— the CheMixHub viscosity set
